Results from US20240228446A1, “PREPARATION METHOD FOR BICYCLIC COMPOUND AND APPLICATION AS ANTIFUNGAL AGENT” (priority 2021, published 2024).
Converted amounts (≈) assume the structure as drawn. Where two headings read alike, the source gives them in different places.

Columns and labels:
[1] = system: Candida albicans ATCC MYA-2876; experiment: Minimal inhibitory concentration (MIC) test on fungal growth (CLSI M27, yeasts); assay type: cell-based; details: for MIC: Candida albicans, read-out: MIC Candida albicans ATCC MYA-2876
Method: (§1) • RPMI1640 medium: Brand: Gibco, article number: 31800-014 • Sabouraud dextrose agar (SDA): Brand: Hope Bio, article number: HB0253-81 • Voriconazole: Brand: Adamas, article number: 22105A • Amphotericin B: Brand: AbCam, article number: ab141199
(§2) MIC test was conducted in accordance with the guidelines and requirements of CLSI M27 (for yeasts) and M38 (for Aspergillus).
(§3) Strain preparation: The strains were inoculated 1 day in advance by streaking on SDA plates with glycerol strains stored at −80° C. The strains were cultured at 35° C. and 40 to 60% humidity for 18 to 24 hours. Streak inoculation of Aspergillus fumigatus and Cryptococcus neoformans was required to be done 3 days and 2 days in advance, respectively.
(§4) Preparation of culture medium and compounds: The liquid culture medium RPMI was prepared with pure water, and 0.165 mol/L MOPS was added to adjust the pH to 7.0. The mixture was filtered with a 0.22 μm-membrane filter, sterilized, and stored at 4° C. (no more than 3 months). 0.85% physiological saline was sterilized at 121° C. for 30 min and then stored at room temperature (no more than 1 week). The compounds were dissolved in DMSO to 12.8 mg/mL and stored at −20° C.
For yeast, 3 to 5 colonies were selected from the SDA plate on the day of testing and fully suspended in 5 mL of sterilized 0.85% physiological saline. The turbidity of the bacterial suspension was measured with a turbidimeter, and the turbidity was adjusted to approximately 0.2. The bacterial suspension was 50-fold and 20-fold (1000-fold in total) diluted in RPMI1640 medium, respectively, to serve as the inoculum. The final inoculum concentration was 500 to 2500 CFU/mL.
(§5) The compound was diluted to the highest 800 μg/mL (or 400 μg/mL) with DMSO, and a 10-step 2-fold gradient dilution was performed, resulting in 11 concentrations. 2 μL of the gradient-diluted compound was transferred to the corresponding wells of a 96-well plate, and then 198 μL of the inoculum was transferred to the test plate. The plate was incubated at 35° C. for 24 hours (Aspergillus fumigatus and Cryptococcus neoformans were incubated for 48 and 72 hours, respectively).
(§6) After the incubation, the growth of the fungi was visually observed. The lowest concentration of the compound that inhibited the growth of yeast by 50% (inhibited Aspergillus by 100%) was defined as the minimum inhibitory concentration (MIC, μg/mL). A magnifying glass or reading at OD530 nm could be used to assist in determining the MIC. Photos were taken of the test plates for record keeping.

[2] = system: Aspergillus fumigatus ATCC MYA-4609; experiment: Minimal inhibitory concentration (MIC) test on fungal growth (CLSI M38, Aspergillus); assay type: cell-based; details: lowest concentration inhibiting Aspergillus by 100%, 35° C., 48 hours, RPMI1640; for MIC: Aspergillus fumigatus, read-out: MIC Aspergillus fumigatus ATCC MYA-4609
Method: as §1, §2, §3, §4
For Aspergillus, 5 mL of physiological saline was added to cover the mycelium, and the spores were gently scraped off with a spreader. The spore suspension was then transferred to a sterile test tube. An appropriate amount of spore suspension was taken and counted under a microscope using a hemocytometer. Spore concentration was adjusted to approximately 0.4 to 5×10^4 spores/mL using RPMI1640 medium.
as §5, §6

[3] = lowest concentration inhibiting growth of yeast by 50%, 35° C., 24 hours, RPMI1640

Compound	MIC [1, 3]	MIC [2]	other results
O[C@@H](COc1ccc(C23CC(C(F)(F)[C@](O)(Cn4cnnn4)c4ccc(F)cc4F)(C2)C3)cc1)CC(F)(F)F (relative stereo) [Compound 142B]	≤ 0.0039 mg/L	4 mg/L (≈ 7.14 µM)	–
CC(Oc1ccc(C23CC(C(F)(F)C(O)(Cn4cnnn4)c4ccc(F)cc4F)(C2)C3)cc1)C(O)C(F)(F)F (stereo not shown) [Compound 135]	0.016 mg/L (≈ 0.0285 µM)	8 mg/L (≈ 14.3 µM)	–
OC(Cn1cncn1)(c1ccc(F)cc1F)C(F)(F)C12CC(c3ccc(OC(F)(F)F)cc3)(C1)C2 (stereo not shown) [Compound 25]	0.0078 mg/L (≈ 0.0156 µM)	2 mg/L (≈ 3.99 µM)	–
N#Cc1ccc(C23CC(C(F)(F)C(O)(Cn4cncn4)c4ccc(F)cc4F)(C2)C3)cn1 (stereo not shown) [Compound 128]	–	–	MIC Candida albicans ATCC MYA-2876 [1, 3]: 0.0078 mg/L (≈ 0.0176 µM); MIC Aspergillus fumigatus ATCC MYA-4609 [2]: 4 mg/L (≈ 9.02 µM)
OC(COc1ccc(C23CC(C(F)(F)C(O)(Cn4cnnn4)c4ccc(F)cc4F)(C2)C3)cc1)C(F)F (stereo not shown) [Compound 137]	≤ 0.0039 mg/L	8 mg/L (≈ 15.1 µM)	–
O[C@H](COc1ccc(C23CC(C(F)(F)[C@](O)(Cn4cnnn4)c4ccc(F)cc4F)(C2)C3)cc1)CC(F)(F)F (relative stereo) [Compound 142A]	≤ 0.0039 mg/L	4 mg/L (≈ 7.14 µM)	–
OC1(COc2ccc(C34CC(C(F)(F)[C@](O)(Cn5cnnn5)c5ccc(F)cc5F)(C3)C4)cc2)CC(F)(F)C1 [Compound 149A]	≤ 0.0039 mg/L	2 mg/L (≈ 3.61 µM)	–
OC(Cn1cnnn1)(c1ccc(F)cc1F)C(F)(F)C12CC(c3ccc(O[C@H]4CCOC4)cc3)(C1)C2 (stereo partly shown) [Compound 41]	0.0078 mg/L (≈ 0.0155 µM)	8 mg/L (≈ 15.9 µM)	–
CC(C)(O)COc1ccc(C23CC(C(F)(F)[C@](O)(Cn4cnnn4)c4ccc(F)cc4F)(C2)C3)cc1 [Compound 36A]	0.0078 mg/L (≈ 0.0154 µM)	4 mg/L (≈ 7.9 µM)	–
O[C@H](COc1ccc(C23CC(C(F)(F)[C@@](O)(Cn4cncn4)c4ccc(F)cc4F)(C2)C3)cn1)C(F)(F)F [Compound 98B]	–	–	MIC Candida albicans ATCC MYA-2876 [1, 3]: ≤0.0039 mg/L; MIC Aspergillus fumigatus ATCC MYA-4609 [2]: 2 mg/L (≈ 3.66 µM)
O[C@@H](COc1ccc(C23CC(C(F)(F)[C@](O)(Cn4cnnn4)c4ccc(F)cc4F)(C2)C3)cc1)C(F)(F)F [Compound 51B]	–	–	MIC Candida albicans ATCC MYA-2876 [1, 3]: 0.0078 mg/L (≈ 0.0143 µM); MIC Aspergillus fumigatus ATCC MYA-4609 [2]: 4 mg/L (≈ 7.32 µM)
OC1(COc2ccc(C34CC(C(F)(F)C(O)(Cn5cncn5)c5ccc(F)cc5F)(C3)C4)cc2)COC1 (stereo not shown) [Compound 151]	≤ 0.0039 mg/L	2 mg/L (≈ 3.85 µM)	–
OC(Cn1cnnn1)(c1ccc(F)cc1F)C(F)(F)C12CC(c3ccc(OCC4(F)COC4)cc3)(C1)C2 (stereo not shown) [Compound 121]	0.0078 mg/L (≈ 0.0149 µM)	8 mg/L (≈ 15.3 µM)	–
O[C@@](Cn1cnnn1)(c1ccc(F)cc1F)C(F)(F)C12CC(c3ccc(OCC(F)F)cc3)(C1)C2 [Compound 22A]	0.0078 mg/L (≈ 0.0156 µM)	2 mg/L (≈ 4.01 µM)	–
CC(C12CC(c3ccc(OC[C@H](O)C(F)(F)F)cc3)(C1)C2)C(O)(Cn1cncn1)c1ccc(F)cc1F (stereo in doubt) [Compound 125]	≤ 0.0039 mg/L	1 mg/L (≈ 1.91 µM)	–
O[C@@H](COc1ccc(C23CC(C(F)(F)[C@](O)(Cn4cnnn4)c4ccc(F)cc4F)(C2)C3)cc1)C1CC1 (relative stereo) [Compound 144B]	≤ 0.0039 mg/L	4 mg/L (≈ 7.71 µM)	–
CNC(=O)COc1ccc(C23CC(C(F)(F)[C@](O)(Cn4cncn4)c4ccc(F)cc4F)(C2)C3)cc1 [Compound 35A]	–	–	MIC Candida albicans ATCC MYA-2876 [1, 3]: ≤0.0039 mg/L; MIC Aspergillus fumigatus ATCC MYA-4609 [2]: 1 mg/L (≈ 1.98 µM)
O[C@@](Cn1cnnn1)(c1ccc(F)cc1F)C(F)(F)C12CC(c3ccc(OCC(F)(F)F)nc3)(C1)C2 [Compound 46A]	–	–	MIC Candida albicans ATCC MYA-2876 [1, 3]: 0.0078 mg/L (≈ 0.0151 µM); MIC Aspergillus fumigatus ATCC MYA-4609 [2]: 2 mg/L (≈ 3.87 µM)
OC(Cn1cnnn1)(c1ccc(F)cc1F)C(F)(F)C12CC(c3ccc(O[C@@H]4CCNC4)cc3)(C1)C2 (stereo partly shown) [Compound 84]	0.25 mg/L (≈ 0.497 µM)	–	–
OC(Cn1cnnn1)(c1ccc(F)cc1F)C(F)(F)C12CC(CN3CCC(Oc4ccccc4)CC3)(C1)C2 (stereo not shown) [Compound 80]	0.06 mg/L (≈ 0.113 µM)	–	–

Compound	MIC [1, 3]	MIC [2]	other results
OC(Cn1cnnn1)(c1ccc(F)cc1F)C(F)(F)C12CC(c3cnc(NCC(F)(F)F)nc3)(C1)C2 (stereo not shown) [Compound 111]	–	–	MIC ([1]; 24 h): 0.016 mg/L (≈ 0.0309 µM)
CC(C)NC[C@H](O)COc1ccc(C23CC(C(F)(F)C(O)(Cn4cnnn4)c4ccc(F)cc4F)(C2)C3)cc1 (stereo partly shown) [Compound 53]	0.5 mg/L (≈ 0.91 µM)	–	–
N#Cc1ccc(C23CC(C(F)(F)[C@@](O)(Cn4cnnn4)c4ccc(F)cc4F)(C2)C3)cc1 [Compound 8A]	–	–	MIC Candida albicans ATCC MYA-2876 [1, 3]: 0.0078 mg/L (≈ 0.0176 µM)
N#Cc1ccc(C23CC(C(F)(F)C(O)(Cn4cnnn4)c4cc(F)ccc4F)(C2)C3)cc1 (stereo not shown) [Compound 28]	0.016 mg/L (≈ 0.0361 µM)	–	–
CN1CCN(c2ccc(C34CC(C(F)(F)C(O)(Cn5cnnn5)c5ccc(F)cc5F)(C3)C4)cc2)CC1 (stereo not shown) [Compound 162]	0.03 mg/L (≈ 0.0581 µM)	–	–
CCS(=O)(=O)C[C@@H](O)COc1ccc(C23CC(C(F)(F)C(O)(Cn4cnnn4)c4ccc(F)cc4F)(C2)C3)cc1 (stereo partly shown) [Compound 139]	0.06 mg/L (≈ 0.103 µM)	–	–
O[C@@](Cn1cnnn1)(c1ccc(F)cc1F)C(F)(F)C12CC(c3cnc(OCC(F)(F)F)cn3)(C1)C2 (stereo in doubt) [Compound 107A]	0.016 mg/L (≈ 0.0309 µM)	–	–
N#Cc1ccc(C23CC(CC(O)(Cn4cncn4)c4ccc(F)cc4F)(C2)C3)cc1 (stereo not shown) [Compound 91]	≤ 0.0039 mg/L	–	–
O=C(COc1ccc(C23CC(C(F)(F)C(O)(Cn4cnnn4)c4ccc(F)cc4F)(C2)C3)cc1)N1CCOCC1 (stereo not shown) [Compound 70]	0.13 mg/L (≈ 0.232 µM)	–	–
OC(Cn1cnnn1)(c1ccc(F)cc1F)C(F)(F)C12CC(c3ccc(C(F)(F)F)nc3)(C1)C2 (stereo not shown) [Compound 115]	0.125 mg/L (≈ 0.256 µM)	–	–
O[C@H](CNc1ccc(C23CC(C(F)(F)[C@](O)(Cn4cnnn4)c4ccc(F)cc4F)(C2)C3)cn1)C(F)(F)F (relative stereo) [Compound 99A]	0.016 mg/L (≈ 0.0293 µM)	–	–
OC(Cn1cnnn1)(c1ccc(F)cc1F)C(F)(F)C12CC(c3ccc(OCc4ccccn4)cc3)(C1)C2 (stereo not shown) [Compound 72]	0.03 mg/L (≈ 0.0571 µM)	–	–
OC(Cn1cnnn1)(c1ccc(F)cc1F)C(F)(F)C12CC(c3cnn(CC(F)(F)F)c3)(C1)C2 (stereo not shown) [Compound 120]	–	–	MIC Candida albicans ATCC MYA-2876 [1, 3]: 0.125 mg/L (≈ 0.255 µM)
OC(Cn1cnnn1)(CC12CC(c3ccc(OCC(F)(F)F)cc3)(C1)C2)c1ccc(F)cc1F (stereo not shown) [Compound 48]	0.06 mg/L (≈ 0.125 µM)	–	–
OC(Cn1cncn1)(c1ccc(F)cc1F)C(F)(F)C12CC(C1)C2 (stereo not shown) [Compound 10]	≤ 0.0039 mg/L	–	–
CNC(=O)COc1ccc(C23CC(C(F)(F)[C@](O)(Cn4cnnn4)c4ccc(F)cc4F)(C2)C3)cc1 [Compound 34A]	–	–	MIC Candida albicans ATCC MYA-2876 [1, 3]: 0.0078 mg/L (≈ 0.0154 µM)
OC(Cn1ccnc1)(c1ccc(F)cc1F)C(F)(F)C12CC(c3ccc(OCC(F)(F)F)cc3)(C1)C2 (stereo not shown) [Compound 124]	0.0078 mg/L (≈ 0.0152 µM)	–	–
CS(=O)(=O)CC(O)COc1ccc(C23CC(C(F)(F)C(O)(Cn4cnnn4)c4ccc(F)cc4F)(C2)C3)cc1 (stereo not shown) [Compound 141]	0.06 mg/L (≈ 0.105 µM)	–	–
OC(COCc1ccc(C23CC(C(F)(F)C(O)(Cn4cnnn4)c4ccc(F)cc4F)(C2)C3)cn1)C(F)(F)F (stereo not shown) [Compound 86]	0.06 mg/L (≈ 0.107 µM)	–	–
C[C@@](F)(C12CC(c3ccc(OCC(F)(F)F)cc3)(C1)C2)[C@](O)(Cn1cnnn1)c1ccc(F)cc1F (single isomer, unassigned) [Compound 18A]	0.0078 mg/L (≈ 0.0152 µM)	–	–
